Tested on: MV-4-11 cells
Test: Gene expression microarray analysis (Affymetrix PrimeView) and GSEA
Format: cell-based, human
Design: RFU PODN (11730768_x_at) / Fold change /veh PODN (11730768_x_at) / RFU LINC00158 (11744669_a_at) / Fold change /veh LINC00158 (11744669_a_at) / RFU DUSP10 (11751237_a_at) / Fold change /veh DUSP10 (11751237_a_at) / RFU ID3 (11757404_x_at) / Fold change /veh ID3 (11757404_x_at) / RFU PLEKHG5 (11737974_s_at) / Fold change /veh PLEKHG5 (11737974_s_at) / RFU LRRC4B (11730491_at) / Fold change /veh LRRC4B (11730491_at) / RFU GIMAP4 (11747438_a_at) / Fold change /veh GIMAP4 (11747438_a_at) / RFU KRT8 (11758183_x_at) / Fold change /veh KRT8 (11758183_x_at) / RFU CNN1 (11734310_a_at) / Fold change /veh CNN1 (11734310_a_at) / RFU VPS37D (11726825_at) / Fold change /veh VPS37D (11726825_at) / RFU C10orf10 (11716522_x_at) / Fold change /veh C10orf10 (11716522_x_at) / RFU KIR2DL2 /// KIR2DL4 /// KIR2DL5A /// KIR2DL5B /// KIR2DS1 /// KIR2DS2 /// KIR2DS3 /// KIR2DS4 /// KIR3DL3 /// KIR3DL3 /// KIR3DS1 (11738374_at) / Fold change /veh KIR2DL2 /// KIR2DL4 /// KIR2DL5A /// KIR2DL5B /// KIR2DS1 /// KIR2DS2 /// KIR2DS3 /// KIR2DS4 /// KIR3DL3 /// KIR3DL3 /// KIR3DS1 (11738374_at) / RFU C1QL1 (11718748_at) / Fold change /veh C1QL1 (11718748_at) / RFU TMPRSS4 (11747572_a_at) / Fold change /veh TMPRSS4 (11747572_a_at) / RFU HAMP (11756126_x_at) / Fold change /veh HAMP (11756126_x_at) / RFU RNFT2 (11725882_a_at) / Fold change /veh RNFT2 (11725882_a_at) / RFU NR4A2 (11747474_a_at) / Fold change /veh NR4A2 (11747474_a_at) / RFU ABCC12 (11746883_a_at) / Fold change /veh ABCC12 (11746883_a_at) / RFU TMEM136 (11760407_x_at) / Fold change /veh TMEM136 (11760407_x_at) / RFU CLDN22 /// WWC2 (11732394_at) / Fold change /veh CLDN22 /// WWC2 (11732394_at) / RFU HLA-DPB1 (11760878_x_at) / Fold change /veh HLA-DPB1 (11760878_x_at) / RFU SPINT1 (11716480_a_at) / Fold change /veh SPINT1 (11716480_a_at) / RFU GAP43 (11754022_s_at) / Fold change /veh GAP43 (11754022_s_at) / RFU A4GNT (11735810_at) / Fold change /veh A4GNT (11735810_at) / RFU PRB3 (11715151_x_at) / Fold change /veh PRB3 (11715151_x_at) / RFU TUBB4B (11761932_at) / Fold change /veh TUBB4B (11761932_at) / RFU CAPN14 (11732068_a_at) / Fold change /veh CAPN14 (11732068_a_at) / RFU TMCC2 (11721928_a_at) / Fold change /veh TMCC2 (11721928_a_at) / RFU IRGQ (11745062_a_at) / Fold change /veh IRGQ (11745062_a_at) / RFU FAM174B (11720279_a_at) / Fold change /veh FAM174B (11720279_a_at) / RFU TMPRSS4 (11748680_a_at) / Fold change /veh TMPRSS4 (11748680_a_at) / RFU FAM212B (11763350_a_at) / Fold change /veh FAM212B (11763350_a_at) / RFU PLEKHG5 (11743358_a_at) / Fold change /veh PLEKHG5 (11743358_a_at) / RFU ZSCAN30 (11745921_a_at) / Fold change /veh ZSCAN30 (11745921_a_at) / RFU CMKLR1 (11741424_a_at) / Fold change /veh CMKLR1 (11741424_a_at) / RFU LOC101060620 /// MAPK8IP1 (11723275_at) / Fold change /veh LOC101060620 /// MAPK8IP1 (11723275_at) / RFU SPTSSB (11747773_x_at) / Fold change /veh SPTSSB (11747773_x_at) / RFU PRSS12 (11739890_at) / Fold change /veh PRSS12 (11739890_at) / RFU BIN1 (11741810_x_at) / Fold change /veh BIN1 (11741810_x_at) / RFU WNT11 (11732464_a_at) / Fold change /veh WNT11 (11732464_a_at) / RFU C10orf10 (11716521_a_at) / Fold change /veh C10orf10 (11716521_a_at) / RFU C5orf56 (11738089_at) / Fold change /veh C5orf56 (11738089_at) / RFU CYB561 (11721691_x_at) / Fold change /veh CYB561 (11721691_x_at) / RFU ANKRD19P (11752326_a_at) / Fold change /veh ANKRD19P (11752326_a_at) / RFU OR2T12 /// OR2T33 /// OR2T8 (11738714_s_at) / Fold change /veh OR2T12 /// OR2T33 /// OR2T8 (11738714_s_at) / RFU VCAN (11748164_a_at) / Fold change /veh VCAN (11748164_a_at) / RFU JSRP1 (11732532_at) / Fold change /veh JSRP1 (11732532_at) / RFU KRTAP10-11 (11738290_x_at) / Fold change /veh KRTAP10-11 (11738290_x_at) / RFU MYO3A (11730013_a_at) / Fold change /veh MYO3A (11730013_a_at) / RFU EBF3 (11725865_a_at) / Fold change /veh EBF3 (11725865_a_at) / RFU CAMK2N1 (11719241_x_at) / Fold change /veh CAMK2N1 (11719241_x_at) / RFU C5orf56 (11738088_a_at) / Fold change /veh C5orf56 (11738088_a_at) / RFU OLFML3 (11715873_a_at) / Fold change /veh OLFML3 (11715873_a_at) / RFU LOC100653217 /// NTM (11731650_a_at) / Fold change /veh LOC100653217 /// NTM (11731650_a_at) / RFU MAPK11 (11762145_a_at) / Fold change /veh MAPK11 (11762145_a_at) / RFU FIZ1 (11724087_x_at) / Fold change /veh FIZ1 (11724087_x_at) / RFU OASL (11726364_x_at) / Fold change /veh OASL (11726364_x_at) / RFU SOX15 (11748057_x_at) / Fold change /veh SOX15 (11748057_x_at) / RFU CD79A (11719716_a_at) / Fold change /veh CD79A (11719716_a_at) / RFU HIST1H1D (11736915_at) / Fold change /veh HIST1H1D (11736915_at) / RFU CASKIN2 (11723855_a_at) / Fold change /veh CASKIN2 (11723855_a_at) / RFU LOC730098 (11760151_x_at) / Fold change /veh LOC730098 (11760151_x_at) / RFU OR4N2 (11742367_at) / Fold change /veh OR4N2 (11742367_at) / RFU PRRT2 (11749266_a_at) / Fold change /veh PRRT2 (11749266_a_at) / RFU SNX32 (11753110_a_at) / Fold change /veh SNX32 (11753110_a_at) / RFU CDHR5 (11726645_a_at) / Fold change /veh CDHR5 (11726645_a_at) / RFU RCAN1 (11760418_a_at) / Fold change /veh RCAN1 (11760418_a_at) / RFU FAM167A (11723789_a_at) / Fold change /veh FAM167A (11723789_a_at) / RFU FAM26E (11764081_at) / Fold change /veh FAM26E (11764081_at) / RFU ISYNA1 (11749810_s_at) / Fold change /veh ISYNA1 (11749810_s_at) / RFU ACY1 (11761880_at) / Fold change /veh ACY1 (11761880_at) / RFU 11764098_at / Fold change /veh 11764098_at / RFU SAMD14 (11745864_x_at) / Fold change /veh SAMD14 (11745864_x_at) / RFU NPB (11741838_a_at) / Fold change /veh NPB (11741838_a_at) / RFU TMPRSS6 (11731388_a_at) / Fold change /veh TMPRSS6 (11731388_a_at) / RFU KRTAP10-2 (11738614_at) / Fold change /veh KRTAP10-2 (11738614_at) / RFU ARHGAP8 /// PRR5-ARHGAP8 (11727945_x_at) / Fold change /veh ARHGAP8 /// PRR5-ARHGAP8 (11727945_x_at) / RFU KRTAP5-7 /// NADSYN1 (11734609_at) / Fold change /veh KRTAP5-7 /// NADSYN1 (11734609_at) / RFU RASL12 (11751679_a_at) / Fold change /veh RASL12 (11751679_a_at) / RFU CDKN2B (11736163_a_at) / Fold change /veh CDKN2B (11736163_a_at) / RFU PRF1 (11729649_at) / Fold change /veh PRF1 (11729649_at) / RFU, ZNF638 /// ZNF638-IT1 / Fold change vs veh, ZNF638 /// ZNF638-IT1 / RFU, PANK3 / Fold change vs veh, PANK3 / RFU, SH3YL1 / Fold change vs veh, SH3YL1 / RFU, ZEB2 / Fold change vs veh, ZEB2 / RFU, NRIP1 / Fold change vs veh, NRIP1 / RFU, PTTG1IP / Fold change vs veh, PTTG1IP / RFU, CAPN2 / Fold change vs veh, CAPN2 / RFU, MED14 / Fold change vs veh, MED14 / RFU, SNORA58 / Fold change vs veh, SNORA58 / RFU, C1orf63 / Fold change vs veh, C1orf63 / RFU, LRRFIP1 / Fold change vs veh, LRRFIP1 / RFU, NDUFAF7 / Fold change vs veh, NDUFAF7 / RFU, SLC12A2 / Fold change vs veh, SLC12A2 / RFU, IBTK / Fold change vs veh, IBTK / RFU, ESF1 / Fold change vs veh, ESF1 / Fold change vs veh, TMEM50B / RFU, TAOK1 / Fold change vs veh, TAOK1 / RFU, ACBD3 / Fold change vs veh, ACBD3 / RFU, TMA16 / Fold change vs veh, TMA16 / RFU, RWDD3 / Fold change vs veh, RWDD3 / RFU, BCAT1 / Fold change vs veh, BCAT1 / RFU, EDEM3 / Fold change vs veh, EDEM3 / RFU, TMEM33 / Fold change vs veh, TMEM33 / RFU, WDR75 / Fold change vs veh, WDR75 / RFU, AHCTF1 / Fold change vs veh, AHCTF1 / RFU, TFRC / Fold change vs veh, TFRC / RFU, ZDHHC17 / Fold change vs veh, ZDHHC17 / RFU, NOM1 / Fold change vs veh, NOM1 / RFU, ARL8B / Fold change vs veh, ARL8B / RFU, ZBTB11 / Fold change vs veh, ZBTB11 / RFU, TAMM41 / Fold change vs veh, TAMM41 / RFU, KIAA1704 /// LOC100996395 / Fold change vs veh, KIAA1704 /// LOC100996395 / RFU, ING1 / Fold change vs veh, ING1 / RFU, TRMT61B / Fold change vs veh, TRMT61B / RFU, FUBP3 / Fold change vs veh, FUBP3 / RFU, TP53 / Fold change vs veh, TP53 / RFU, TNKS2 / Fold change vs veh, TNKS2 / RFU, ZFP14 / Fold change vs veh, ZFP14 / RFU, ACTR2 / Fold change vs veh, ACTR2 / RFU, PPP3R1 / Fold change vs veh, PPP3R1 / RFU, PIK3R1 / Fold change vs veh, PIK3R1 / RFU, HNRNPA1 / Fold change vs veh, HNRNPA1 / RFU, RNF170 / Fold change vs veh, RNF170 / RFU, ZNF28 / Fold change vs veh, ZNF28 / RFU, RNGTT / Fold change vs veh, RNGTT / RFU, OGT / Fold change vs veh, OGT / RFU, BRD1 / Fold change vs veh, BRD1 / RFU, MARS / Fold change vs veh, MARS / RFU, ZNF655 / Fold change vs veh, ZNF655 / RFU, FAHD1 / Fold change vs veh, FAHD1 / RFU, BDP1 / Fold change vs veh, BDP1 / RFU, LRRCC1 / Fold change vs veh, LRRCC1 / RFU, ARID1A / Fold change vs veh, ARID1A / RFU, ZNF146 / Fold change vs veh, ZNF146 / RFU, ZNF330 / Fold change vs veh, ZNF330 / RFU, GPN3 / Fold change vs veh, GPN3 / RFU, C9orf123 / Fold change vs veh, C9orf123 / RFU, N4BP2L2 / Fold change vs veh, N4BP2L2 / RFU, ARFIP1 / Fold change vs veh, ARFIP1 / RFU, FAM179B / Fold change vs veh, FAM179B / RFU, BCL10 / Fold change vs veh, BCL10 / RFU, UHRF1BP1L / Fold change vs veh, UHRF1BP1L / RFU, BET1 / Fold change vs veh, BET1 / RFU, CNOT2 / Fold change vs veh, CNOT2 / RFU, ZNF268 / Fold change vs veh, ZNF268 / Fold change vs veh, ZNF507 / RFU, DGCR2 / Fold change vs veh, DGCR2 / RFU, WDSUB1 / Fold change vs veh, WDSUB1 / Fold change vs veh, HSP90B1 /// MIR3652 / RFU, ADSS / Fold change vs veh, ADSS / RFU, GK / Fold change vs veh, GK / RFU, ZNF148 / Fold change vs veh, ZNF148 / RFU, TAF9 / Fold change vs veh, TAF9 / RFU, SLC1A5 / Fold change vs veh, SLC1A5 / RFU, SLMO2 / Fold change vs veh, SLMO2 / RFU, ABCC4 / Fold change vs veh, ABCC4 / RFU, LOC101060439 /// RAP1B / Fold change vs veh, LOC101060439 /// RAP1B / RFU, RFX7 / Fold change vs veh, RFX7 / RFU, GTPBP10 / Fold change vs veh, GTPBP10 / RFU, CNEP1R1 / Fold change vs veh, CNEP1R1 / RFU, BIVM-ERCC5 /// ERCC5 / Fold change vs veh, BIVM-ERCC5 /// ERCC5 / RFU, ILF3 / Fold change vs veh, ILF3 / RFU 11762660_at / Fold change /veh 11762660_at / RFU VCAN (11757783_s_at) / Fold change /veh VCAN (11757783_s_at) / RFU DDX43 (11728927_at) / Fold change /veh DDX43 (11728927_at) / RFU KRT8 (11758188_x_at) / Fold change /veh KRT8 (11758188_x_at) / RFU NKD1 (11759106_at) / Fold change /veh NKD1 (11759106_at) / RFU SRD5A1 (11742802_a_at) / Fold change /veh SRD5A1 (11742802_a_at) / RFU TPSAB1 /// TPSB2 (11721975_s_at) / Fold change /veh TPSAB1 /// TPSB2 (11721975_s_at) / RFU GSTM3 (11746129_a_at) / Fold change /veh GSTM3 (11746129_a_at) / RFU IL23R (11737362_x_at) / Fold change /veh IL23R (11737362_x_at) / RFU TMEM51 (11727254_a_at) / Fold change /veh TMEM51 (11727254_a_at) / RFU PIWIL2 (11732686_x_at) / Fold change /veh PIWIL2 (11732686_x_at) / RFU ORM1 (11744905_x_at) / Fold change /veh ORM1 (11744905_x_at) / RFU CCDC152 (11743942_at) / Fold change /veh CCDC152 (11743942_at) / RFU ECM1 (11717891_a_at) / Fold change /veh ECM1 (11717891_a_at) / RFU IL23R (11748794_a_at) / Fold change /veh IL23R (11748794_a_at) / RFU TNFAIP8L3 (11732012_x_at) / Fold change /veh TNFAIP8L3 (11732012_x_at) / RFU MBOAT4 (11741988_at) / Fold change /veh MBOAT4 (11741988_at) / RFU 11764193_at / Fold change /veh 11764193_at / RFU TMEM53 (11763286_at) / Fold change /veh TMEM53 (11763286_at) / RFU MAGEB2 (11727129_at) / Fold change /veh MAGEB2 (11727129_at) / RFU TMEM200A (11744735_a_at) / Fold change /veh TMEM200A (11744735_a_at) / RFU CCDC152 (11751479_a_at) / Fold change /veh CCDC152 (11751479_a_at) / RFU FAM211A (11726209_a_at) / Fold change /veh FAM211A (11726209_a_at) / RFU RGS16 (11746705_a_at) / Fold change /veh RGS16 (11746705_a_at) / RFU VCAN (11755009_s_at) / Fold change /veh VCAN (11755009_s_at) / RFU RHOB (11743442_s_at) / Fold change /veh RHOB (11743442_s_at) / RFU RGS16 (11720943_a_at) / Fold change /veh RGS16 (11720943_a_at) / RFU RGS16 (11720944_at) / Fold change /veh RGS16 (11720944_at) / RFU, VPS4B / Fold change vs veh, VPS4B / RFU, CREB1 / Fold change vs veh, CREB1 / RFU, DNAJC13 / Fold change vs veh, DNAJC13 / RFU, GNAQ / Fold change vs veh, GNAQ / RFU, CDK5R1 / Fold change vs veh, CDK5R1 / RFU, ZRANB3 / Fold change vs veh, ZRANB3 / RFU, CUL4A / Fold change vs veh, CUL4A / RFU, CCNY / Fold change vs veh, CCNY / RFU, UFL1 / Fold change vs veh, UFL1 / RFU, COG3 / Fold change vs veh, COG3 / RFU, DIAPH2 / Fold change vs veh, DIAPH2 / RFU, SKA2 / Fold change vs veh, SKA2 / RFU, AFF3 / Fold change vs veh, AFF3 / RFU, LMF1 / Fold change vs veh, LMF1 / RFU, IPO11 / Fold change vs veh, IPO11 / RFU, DFFB / Fold change vs veh, DFFB / RFU, FOXP1 / Fold change vs veh, FOXP1 / RFU, CARD8 / Fold change vs veh, CARD8 / RFU, STRN3 / Fold change vs veh, STRN3 / RFU, ADK / Fold change vs veh, ADK / RFU, RASSF2 / Fold change vs veh, RASSF2 / RFU, WIPF1 / Fold change vs veh, WIPF1 / RFU, LARP1B / Fold change vs veh, LARP1B / RFU, RASA1 / Fold change vs veh, RASA1 / RFU, RB1 / Fold change vs veh, RB1 / RFU, PPFIA1 / Fold change vs veh, PPFIA1 / RFU, MAT2A / Fold change vs veh, MAT2A / RFU, CCT5 / Fold change vs veh, CCT5 / RFU, WDR92 / Fold change vs veh, WDR92 / RFU, CUX1 / Fold change vs veh, CUX1 / RFU, TTC7A / Fold change vs veh, TTC7A / RFU, TMEM135 / Fold change vs veh, TMEM135 / RFU, DEPTOR / Fold change vs veh, DEPTOR / RFU, CPM / Fold change vs veh, CPM / RFU, DNAJB6 / Fold change vs veh, DNAJB6 / RFU, CACNA2D3 / Fold change vs veh, CACNA2D3 / RFU, DTX4 / Fold change vs veh, DTX4 / RFU, TFCP2 / Fold change vs veh, TFCP2 / RFU, GMCL1 /// GMCL1P1 / Fold change vs veh, GMCL1 /// GMCL1P1 / RFU, AEBP2 / Fold change vs veh, AEBP2 / RFU, SNHG1 /// SNORD22 /// SNORD25 /// SNORD26 /// SNORD27 /// SNORD28 /// SNORD29 /// SNORD31 / Fold change vs veh, SNHG1 /// SNORD22 /// SNORD25 /// SNORD26 /// SNORD27 /// SNORD28 /// SNORD29 /// SNORD31 / Fold change (Aza/veh), C12orf56 (ProbeSet 11735607_a_at) / Fold change (ACY-1035/veh), C12orf56 (ProbeSet 11735607_a_at) / Fold change (Aza/veh), FGFR1OP (ProbeSet 11751329_s_at) / Fold change (ACY-1035/veh), FGFR1OP (ProbeSet 11751329_s_at) / Fold change (Aza/veh), VPS36 (ProbeSet 11739960_a_at) / Fold change (ACY-1035/veh), VPS36 (ProbeSet 11739960_a_at) / RFU SYPL1 (11715823_x_at) / Fold change /veh SYPL1 (11715823_x_at) / RFU IGFBP7 (11715501_s_at) / Fold change /veh IGFBP7 (11715501_s_at) / RFU REEP3 (11722064_at) / Fold change /veh REEP3 (11722064_at) / RFU IGLL1 (11728026_x_at) / Fold change /veh IGLL1 (11728026_x_at): dose or concentration left out as unconfirmed
Details: MV-4-11 cells, 48 hours

Nc1ncn([C@@H]2O[C@H](CO)[C@@H](O)[C@H]2O)c(=O)n1 [azacitidine]
Fold change /veh RGS16 (11746705_a_at): 1.56

— paper PMC5218480 (PLoS ONE, 2017)
